# Tested on: HOP-62 multicell spheroids with HUVEC/MSC, viability
# Test: Anticancer human tumor HOP-62 cell line growth inhibition [KRAS2];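 also: viability read after a week of compound exposure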;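 as to viability, T/C: 100% = DMSO vehicle-treated spheroids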
# Details: for IC50: curve of first compound; for viability, T/C: stronger effect = lower value
# In short: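 Combination screen of spheroid viability in tumor-cell co-cultures with endothelial (HUVEC) and mesenchymal stem cell stroma. Each agent was tested in half-log dilutions, topping at clinical Cmax or at 10 microM without a known Cmax.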
# [1] = second compound 0.1 µM, first compound 0.0316 µM
# [2] = second compound 0.1 µM, first compound 0.1 µM
# [3] = second compound 0.1 µM, first compound 0.316 µM
# [4] = second compound 0.1 µM, first compound 1 µM
# [5] = second compound 0.1 µM, first compound 3.16 µM
# [6] = second compound 0.1 µM, first compound 10 µM
# [7] = second compound 0.316 µM, first compound 0.0316 µM
# [8] = second compound 0.316 µM, first compound 0.1 µM
# [9] = second compound 0.316 µM, first compound 0.316 µM
# [10] = second compound 0.316 µM, first compound 1 µM
# [11] = second compound 0.316 µM, first compound 3.16 µM
# [12] = second compound 0.316 µM, first compound 10 µM
# [13] = second compound 1 µM, first compound 0.0316 µM
# [14] = second compound 1 µM, first compound 0.1 µM
# [15] = second compound 1 µM, first compound 0.316 µM
# [16] = second compound 1 µM, first compound 1 µM
# [17] = second compound 1 µM, first compound 3.16 µM
# [18] = second compound 1 µM, first compound 10 µM
# [19] = second compound 3.16 µM, first compound 0.0316 µM
# [20] = second compound 3.16 µM, first compound 0.1 µM
# [21] = second compound 3.16 µM, first compound 0.316 µM
# [22] = second compound 3.16 µM, first compound 1 µM
# [23] = second compound 3.16 µM, first compound 3.16 µM
# [24] = second compound 3.16 µM, first compound 10 µM
# [25] = second compound 10 µM, first compound 0.0316 µM
# [26] = second compound 10 µM, first compound 0.1 µM
# [27] = second compound 10 µM, first compound 0.316 µM
# [28] = second compound 10 µM, first compound 1 µM
# [29] = second compound 10 µM, first compound 3.16 µM
# [30] = second compound 10 µM, first compound 10 µM
# [31] = second compound 0.1 µM, first compound 0.00316 µM
# [32] = second compound 0.1 µM, first compound 0.01 µM
# [33] = second compound 0.316 µM, first compound 0.00316 µM
# [34] = second compound 0.316 µM, first compound 0.01 µM
# [35] = second compound 1 µM, first compound 0.00316 µM
# [36] = second compound 1 µM, first compound 0.01 µM
# [37] = second compound 3.16 µM, first compound 0.00316 µM
# [38] = second compound 3.16 µM, first compound 0.01 µM
# [39] = second compound 10 µM, first compound 0.00316 µM
# [40] = second compound 10 µM, first compound 0.01 µM
SMILES,IC50 (second compound 0.1 µM),IC50 (second compound 0.316 µM),IC50 (second compound 1 µM),IC50 (second compound 3.16 µM),IC50 (second compound 10 µM),"viability, T/C [1]","viability, T/C [2]","viability, T/C [3]","viability, T/C [4]","viability, T/C [7]","viability, T/C [8]","viability, T/C [9]","viability, T/C [10]","viability, T/C [13]","viability, T/C [14]","viability, T/C [15]","viability, T/C [19]","viability, T/C [20]","viability, T/C [25]","viability, T/C [26]",other results
CC(C)NCC(C(=O)N1CCN(c2ncnc3c2C(C)CC3O)CC1)c1ccc(Cl)cc1 (stereo not given) + CC1OCC2(CCN(c3cnc(Sc4ccnc(N)c4Cl)c(N)n3)CC2)C1N,389 nM,235 nM,52.1 nM,< 31.6 nM,< 31.6 nM,88.7%,81.9%,53.5%,27.6%,65.7%,66.2%,43.4%,21.7%,55.9%,42.3%,20.5%,37.6%,27.2%,25.7%,20.4%,"viability, T/C [5]: 11.3%; viability, T/C [6]: 7.62%; viability, T/C [11]: 8.04%; viability, T/C [12]: 5.81%; viability, T/C [16]: 7.92%; viability, T/C [17]: 6.64%; viability, T/C [18]: 4.61%; viability, T/C [21]: 13%; viability, T/C [22]: 7.62%; viability, T/C [23]: 4.7%; viability, T/C [24]: 3.86%; viability, T/C [27]: 14.5%; viability, T/C [28]: 7.49%; viability, T/C [29]: 4.67%; viability, T/C [30]: 3.48%"
CC1(C)CCC(CN2CCN(c3ccc(C(=O)NS(=O)(=O)c4ccc(NCC5CCOCC5)c([N+](=O)[O-])c4)c(Oc4cnc5[nH]ccc5c4)c3)CC2)=C(c2ccc(Cl)cc2)C1 + CC1OCC2(CCN(c3cnc(Sc4ccnc(N)c4Cl)c(N)n3)CC2)C1N,3720 nM,3280 nM,1310 nM,< 31.6 nM,< 31.6 nM,76.5%,73%,70%,72%,72.3%,62.2%,68.3%,67.6%,62.3%,54.4%,52%,47.9%,45%,37.5%,32.9%,"viability, T/C [5]: 54.3%; viability, T/C [6]: 17.2%; viability, T/C [11]: 51.1%; viability, T/C [12]: 12.6%; viability, T/C [16]: 50.1%; viability, T/C [17]: 44.6%; viability, T/C [18]: 10.6%; viability, T/C [21]: 36.6%; viability, T/C [22]: 26.7%; viability, T/C [23]: 18.1%; viability, T/C [24]: 10.7%; viability, T/C [27]: 32%; viability, T/C [28]: 26.6%; viability, T/C [29]: 26.5%; viability, T/C [30]: 6.62%"
CCN1CCN(Cc2ccc(Nc3ncc(F)c(-c4cc(F)c5nc(C)n(C(C)C)c5c4)n3)nc2)CC1 + CC1OCC2(CCN(c3cnc(Sc4ccnc(N)c4Cl)c(N)n3)CC2)C1N,> 1000 nM,370 nM,67.5 nM,< 3.16 nM,< 3.16 nM,87.1%,83.7%,75.4%,50.8%,73.1%,73%,49%,37.2%,53%,42.1%,42.7%,33.5%,27%,23.4%,21.5%,"viability, T/C [31]: 104%; viability, T/C [32]: 93.8%; viability, T/C [33]: 96.8%; viability, T/C [34]: 76.6%; viability, T/C [35]: 65.3%; viability, T/C [36]: 73.2%; viability, T/C [16]: 25.9%; viability, T/C [37]: 33.7%; viability, T/C [38]: 41.3%; viability, T/C [21]: 25.7%; viability, T/C [22]: 20.1%; viability, T/C [39]: 32.6%; viability, T/C [40]: 27.4%; viability, T/C [27]: 23.9%; viability, T/C [28]: 13.9%"
Cn1ncnc1[C@H]1c2n[nH]c(=O)c3cc(F)cc(c23)N[C@@H]1c1ccc(F)cc1 + CC1OCC2(CCN(c3cnc(Sc4ccnc(N)c4Cl)c(N)n3)CC2)C1N,> 100 nM,> 100 nM,1.39 nM,< 0.316 nM,< 0.316 nM,80.2%,73%,,,72.5%,52.6%,,,32.7%,37.9%,,17.5%,22.5%,24.1%,21.1%,"viability, T/C (second compound 0.1 µM, first compound 0.000316 µM): 88.7%; viability, T/C (second compound 0.1 µM, first compound 0.001 µM): 97.9%; viability, T/C [31]: 94.1%; viability, T/C [32]: 87.1%; viability, T/C (second compound 0.316 µM, first compound 0.000316 µM): 86.5%; viability, T/C (second compound 0.316 µM, first compound 0.001 µM): 66.8%; viability, T/C [33]: 62.7%; viability, T/C [34]: 69.3%; viability, T/C (second compound 1 µM, first compound 0.000316 µM): 65.2%; viability, T/C (second compound 1 µM, first compound 0.001 µM): 56.9%; viability, T/C [35]: 29.8%; viability, T/C [36]: 31.4%; viability, T/C (second compound 3.16 µM, first compound 0.000316 µM): 40.6%; viability, T/C (second compound 3.16 µM, first compound 0.001 µM): 31.7%; viability, T/C [37]: 37%; viability, T/C [38]: 23.7%; viability, T/C (second compound 10 µM, first compound 0.000316 µM): 36.9%; viability, T/C (second compound 10 µM, first compound 0.001 µM): 30.3%; viability, T/C [39]: 31%; viability, T/C [40]: 27.5%"

# — PubChem BioAssay AID1963858 (Molecular Pharmacology Branch, DTP, NCI, 2024)
